# Laboratory results from ChEMBL document CHEMBL1136964, “Nicotinic agonist binding site mapped by methionine- and tyrosine-scanning coupled with azidochloropyridinyl photoaffinity labeling” (J Med Chem, 2009).
# How the values were obtained:
# Assay type in all cases: cell-based
# [1] = Binding affinity to Aplysia californica AchBP M116Y mutant expressed in HEK293S cells by scintillation proximity assay
# [2] = Binding affinity to Aplysia californica AchBP A107M, M116L, Y195F mutant expressed in HEK293S cells by scintillation proximity assay
# [3] = Binding affinity to Aplysia californica AchBP I118M, M116L mutant expressed in HEK293S cells by scintillation proximity assay
# HEK293S [4] = experiment: Binding affinity to Aplysia californica AchBP I118M, M116L, Y195F mutant expressed in HEK293S cells assessed as specific photoincorporation at 46 pmol by scintillation counting
# [5] = Binding affinity to Aplysia californica AchBP V108M mutant expressed in HEK293S cells by scintillation proximity assay
# [6] = Binding affinity to Aplysia californica AchBP I106M, M116L mutant expressed in HEK293S cells by scintillation proximity assay
# [7] = Binding affinity to wild type Aplysia californica AchBP expressed in HEK293S cells by scintillation proximity assay
# HEK293S [8] = experiment: Binding affinity to Aplysia californica AchBP M116Y, Y195F mutant expressed in HEK293S cells assessed as specific photoincorporation at 46 pmol by scintillation counting
# HEK293S [9] = experiment: Binding affinity to wild type Aplysia californica AchBP expressed in HEK293S cells assessed as specific photoincorporation at 46 pmol by scintillation counting
# [10] = Binding affinity to Aplysia californica AchBP S114M, M116L mutant expressed in HEK293S cells by scintillation proximity assay
# HEK293S [11] = experiment: Binding affinity to Aplysia californica AchBP I106M, M116L mutant expressed in HEK293S cells assessed as specific photoincorporation at 46 pmol by scintillation counting
# HEK293S [12] = experiment: Binding affinity to Aplysia californica AchBP M116Y, Y195F mutant expressed in HEK293S cells assessed as specific photoincorporation at 46 pmol by scintillation counting relative to wild type
# HEK293S [13] = experiment: Binding affinity to Aplysia californica AchBP S114M, M116L, Y195F mutant expressed in HEK293S cells assessed as specific photoincorporation at 46 pmol by scintillation counting
# HEK293S [14] = experiment: Binding affinity to Aplysia californica AchBP M116L,Y195F mutant expressed in HEK293S cells assessed as specific photoincorporation at 46 pmol by scintillation counting relative to wild type
# [15] = Binding affinity to Aplysia californica AchBP Y195F mutant expressed in HEK293S cells by scintillation proximity assay
# HEK293S [16] = experiment: Binding affinity to Aplysia californica AchBP I106M, M116L, Y195F mutant expressed in HEK293S cells assessed as specific photoincorporation at 46 pmol by scintillation counting
# HEK293S [17] = experiment: Binding affinity to Aplysia californica AchBP A107M, M116L mutant expressed in HEK293S cells assessed as specific photoincorporation at 46 pmol by scintillation counting relative to wild type
# HEK293S [18] = experiment: Binding affinity to Aplysia californica AchBP V108M, M116L, Y195F mutant expressed in HEK293S cells assessed as specific photoincorporation at 46 pmol by scintillation counting
# HEK293S [19] = experiment: Binding affinity to Aplysia californica AchBP M116L mutant expressed in HEK293S cells assessed as specific photoincorporation at 46 pmol by scintillation counting relative to wild type
# HEK293S [20] = experiment: Binding affinity to Aplysia californica AchBP M116Y mutant expressed in HEK293S cells assessed as specific photoincorporation at 46 pmol by scintillation counting relative to wild type
# HEK293S [21] = experiment: Binding affinity to Aplysia californica AchBP I106M, M116L, Y195F mutant expressed in HEK293S cells assessed as specific photoincorporation at 46 pmol by scintillation counting relative to wild type
# HEK293S [22] = experiment: Binding affinity to Aplysia californica AchBP A107M mutant expressed in HEK293S cells assessed as specific photoincorporation at 46 pmol by scintillation counting relative to wild type
# HEK293S [23] = experiment: Binding affinity to Aplysia californica AchBP S114M, M116L, Y195F mutant expressed in HEK293S cells assessed as specific photoincorporation at 46 pmol by scintillation counting relative to wild type
# [24] = Binding affinity to Aplysia californica AchBP I118M mutant expressed in HEK293S cells by scintillation proximity assay
# HEK293S [25] = experiment: Binding affinity to Aplysia californica AchBP I106M, M116L mutant expressed in HEK293S cells assessed as specific photoincorporation at 46 pmol by scintillation counting relative to wild type
# HEK293S [26] = experiment: Binding affinity to Aplysia californica AchBP V108M, M116L, Y195F mutant expressed in HEK293S cells assessed as specific photoincorporation at 46 pmol by scintillation counting relative to wild type
# [27] = Binding affinity to Aplysia californica AchBP S114M mutant expressed in HEK293S cells by scintillation proximity assay
# HEK293S [28] = experiment: Binding affinity to Aplysia californica AchBP I118M, M116L mutant expressed in HEK293S cells assessed as specific photoincorporation at 46 pmol by scintillation counting relative to wild type
# HEK293S [29] = experiment: Binding affinity to Aplysia californica AchBP S114M, M116L mutant expressed in HEK293S cells assessed as specific photoincorporation at 46 pmol by scintillation counting relative to wild type
# [30] = Binding affinity to Aplysia californica AchBP A107M mutant expressed in HEK293S cells by scintillation proximity assay
# HEK293S [31] = experiment: Binding affinity to Aplysia californica AchBP M116L mutant expressed in HEK293S cells assessed as specific photoincorporation at 46 pmol by scintillation counting
# [32] = Binding affinity to Aplysia californica AchBP S114M, M116L, Y195F mutant expressed in HEK293S cells by scintillation proximity assay
# HEK293S [33] = experiment: Binding affinity to Aplysia californica AchBP I118M, M116L mutant expressed in HEK293S cells assessed as specific photoincorporation at 46 pmol by scintillation counting
# [34] = Binding affinity to Aplysia californica AchBP M116L mutant expressed in HEK293S cells by scintillation proximity assay
# HEK293S [35] = experiment: Binding affinity to Aplysia californica AchBP Y195F mutant expressed in HEK293S cells assessed as specific photoincorporation at 46 pmol by scintillation counting
# [36] = Binding affinity to Aplysia californica AchBP V108M, M116L mutant expressed in HEK293S cells by scintillation proximity assay
# HEK293S [37] = experiment: Binding affinity to Aplysia californica AchBP M116Y mutant expressed in HEK293S cells assessed as specific photoincorporation at 46 pmol by scintillation counting
# [38] = Binding affinity to Aplysia californica AchBP I106M, M116L, Y195F mutant expressed in HEK293S cells by scintillation proximity assay
structure (smiles),measurement,setting,value
Clc1ccc(C2CC3CCC2N3)cn1 (racemic) [EPIBATIDINE],Kd,[1],0.057 µM
same,Kd,[2],0.025 µM
same,Kd,[3],0.005 µM
same,Activity,HEK293S [4],4.7%
same,Kd,[5],0.0076 µM
same,Kd,[6],0.012 µM
same,Kd,[7],0.0086 µM
same,Activity,HEK293S [8],8.7%
same,Activity,HEK293S [9],29%
same,Kd,[10],0.012 µM
same,Activity,HEK293S [11],26%
same,Activity,HEK293S [12],30%
same,Activity,HEK293S [13],3.9%
same,Activity,HEK293S [14],6.9%
same,Kd,[15],0.021 µM
same,Activity,HEK293S [16],3.7%
same,Activity,HEK293S [17],100%
same,Activity,HEK293S [18],0%
same,Activity,HEK293S [19],121%
same,Activity,HEK293S [20],59%
same,Activity,HEK293S [21],13%
same,Activity,HEK293S [22],93%
same,Activity,HEK293S [23],13%
same,Kd,[24],0.01 µM
same,Activity,HEK293S [25],90%
same,Activity,HEK293S [26],0%
same,Kd,[27],0.016 µM
same,Activity,HEK293S [28],55%
same,Activity,HEK293S [29],66%
same,Kd,[30],0.01 µM
same,Activity,HEK293S [31],35%
same,Kd,[32],0.024 µM
same,Activity,HEK293S [33],16%
same,Kd,[34],0.009 µM
same,Activity,HEK293S [35],1%
same,Kd,[36],0.0029 µM
same,Activity,HEK293S [37],17%
same,Kd,[38],0.029 µM
